Assay results taken from paper PMC1977984 (British Journal of Cancer, 1992).
Where two headings read alike, the source gives them in different places. One block for each molecule: values may come before it. Starred links: 1 amine or outer side, 2 acyl side, 3 side chain; linkers in the order of their positions; H or OH if unused. Positions of bridges follow the written chain, without caps; N, C: chain ends. Non-standard residues stand in square brackets, D forms with d. Residues, ends and D or L forms follow the SMILES beside them. Chains are numbered I, II in the order given. Actinocin(9to1) = Cc1c2oc3c(C)ccc(C(=O)[*:1])c3nc-2c(C(=O)[*:2])c(N)c1=O; NMeV = CN[C@H](C(=O)O)C(C)C; Sar = CNCC(=O)O

Tests used:
[1] = system: drug resistant variant of the Ridgway osteogenic sarcoma; set-up: method as in Merry et al., 1991; conditions: in vivo model; ref Merry et al., 1991; cited from earlier work
[2] = cited from earlier work
[3] = system: human BRO melanoma cells; set-up: method as in Lincke et al., 1990; conditions: parental BRO cell line; ref Lincke et al., 1990; read-out: IC50 for etoposide; cited from earlier work
[4] = system: MCF-7 wt cell line; test: cells
Source text: (§1) Br. J. Cancer (1992), 66, 833-839 ? […] Clinical effects and in vitro assessment in p-glycoprotein expressing cell lines N.S.A. Stuart', P. Philip', A.L. Harris', K. Tonkin', S. Houlbrook2, J. Kirk2, E.A. Lien3 & J. Carmichael' 'ICRF Clinical Oncology Unit, Churchill Hospital, Oxford OX3 7LJ; 2MRC Radiobiology Unit, Chilton, Didcot, Oxon; 3Department of Pharmacology and Toxicology, University of Bergen, Bergen, Norway. […] Cytotoxic drug resistance frequently affects a wide range of cytotoxic agents. It is commonly inherent, although it may also be acquired after initial response to cytotoxic drugs. Cell lines exposed in vitro to one cytotoxic drug may also become resistant to a range of structurally and functionally diverse agents. This multidrug resistant (MDR) phenotype is associ- ated with the presence of a 170 kd membrane glycoprotein, the P-glycoprotein (Pgp) (Juliano et al., 1976; Kartner et al., 1983; Riordan et al., 1985) which acts as an energy depen- dent efflux pump (Skovsgaard, 1978). […] Unfor- tunately many cause unacceptable toxicity at levels below those needed to modulate resistance and have therefore not been useful clinically (Ozols et al., 1987). Some encouraging results have however been reported in lymphoid malignan- cies. […] It is widely used in the treatment of breast cancer at doses of 20-40mgday-' and at such doses produces serum levels around 0.5 JiM (Adam et al., 1980; Fabian et al., 1980; Lien et al., 1989). […] Etoposide (VP16-213, Vepesid) is an epipodophyllotoxin derived cytotoxic drug which interferes with the action of the nuclear enzyme topoisomerase II producing lethal single and double stranded DNA breaks (Chen et al., 1984). It has activity in a number of solid tumours and resistance to it is part of the typical MDR phenotype (Endicott et al., 1989). […] The study therefore included patients with a range of relapsed and chemoresistant tumours. […] Patients had ECOG performance scores of 2 or better, had normal renal and hepatic function and had normal peripheral blood counts. […] Correspondence: N.S. Stuart. Received 13 March 1992; and in revised form 8 July 1992. 'PI Macmillan Press Ltd., 1992 Br. J. Cancer (1992), 66, 833-839 834 N.S.A. STUART et al. No formal compliance check was conducted but patients were asked specifically whether they had difficulties taking the correct number of tablets. Oral etoposide was given at a dose of 300mgday-' (150mg two times day-') for the first course. Patients who remained myelosuppressed on day 21 had the dose of etoposide reduced to 200 mg day-' for subse- quent courses. In those who had no significant myelosuppres- sion the dose of etoposide was increased to 400 mg day-'. […] Blood samples were centrifuged and the serum removed and stored at -20?C prior to measurement. […] The methods used have been published previously (Lien et al., 1989; 1987). […] The drugs were detected by being converted to fluorophors by subjecting the effluent of the column to ultra-violet light while passing through a quartz tube. The identity of the analyses was confirmed by liquid chromatography/mass spec- trometry using an on-line mass spectrometer connected to the analytical column (Lien et al., 1988). Serum levels in different patient populations were compared using the Mann-Whitney U-test. Cells and culture conditions Three pairs of cell lines were assessed. Each comprised a wild-type parental cell line and a P-glycoprotein expressing daughter line. The wild-type MCF-7 cell line was derived from a human breast cancer (Soule et al., 1973) while the CHO-KI cell line was derived from Chinese hamster ovaries (CHO).

[5] = system: S1 cell line (SW-1573); test: cells; conditions: for Enhancement: S1, IC50 etoposide alone divided by IC50 with MNTC tamoxifen
Source text: as §1

[6] = system: MCF-7 adrr cell line; test: cells
Source text: as §1

[7] = system: CHO-KI adrr cell line; conditions: for Enhancement: CHO-KI adrr, IC50 etoposide alone divided by IC50 with MNTC tamoxifen
Source text: as §1

[8] = Source text: as §1
[9] = system: S1/1.1 cell line; conditions: for Enhancement: S1/1.1, IC50 etoposide alone divided by IC50 with MNTC tamoxifen
Source text: as §1

[10] = system: multidrug resistance in vitro; set-up: method as in earlier work; conditions: ref Chatterjee et al., 1990b; Foster et al., 1988; Ramu et al., 1984; cited from earlier work
[11] = system: P388/ADR murine leukaemia line; set-up: method as in Ramu et al., 1984; conditions: ref Ramu et al., 1984; cited from earlier work
[12] = system: CHO-KI adrr cell line; set-up: method as in Chatterjee et al., 1990b; conditions: dox resistant CHO-KI adrr line; ref Chatterjee et al., 1990b; cited from earlier work
[13] = system: CHO-KI cell line; set-up: method as in Chatterjee et al., 1990b; conditions: parental CHO-KI line; ref Chatterjee et al., 1990b; cited from earlier work
[14] = system: CHO-KI cell line; conditions: IC50 etoposide alone divided by IC50 with MNTC tamoxifen
Source text: as §1

[15] = system: MCF-7 adrr cell line; set-up: method as in Foster et al., 1988; conditions: ref Foster et al., 1988; cited from earlier work
[16] = system: Chinese hamster lung (DC3F/ADX) and breast cancer (MCF-7 adrr) cell lines; set-up: method as in Politi et al., 1990; conditions: multidrug resistant mutants; ref Politi et al., 1990; cited from earlier work
[17] = Homo sapiens, MCF7, 96 h, read-out: IC50 etoposide

Compound: Cc1c2oc3c(C)ccc(C(=O)N[C@@H]4C(=O)N[C@H](C(C)C)C(=O)N5CCC[C@H]5C(=O)N(C)CC(=O)N(C)[C@@H](C(C)C)C(=O)O[C@@H]4C)c3nc-2c(C(=O)N[C@@H]2C(=O)N[C@H](C(C)C)C(=O)N3CCC[C@H]3C(=O)N(C)CC(=O)N(C)[C@@H](C(C)C)C(=O)O[C@@H]2C)c(N)c1=O [actinomycin- D, actinomycin-D] (I: T[dV]P[Sar][NMeV] / II: T[dV]P[Sar][NMeV]; ester I:1-I:C, II:1-II:C; linker I:N-II:N via Actinocin(9to1))
Resistance of the drug resistant variant [1]: 1.5 fold

Compound: CC/C(=C(\c1ccccc1)c1ccc(OCCN)cc1)c1ccccc1 [didesmethyltamoxifen]
Levels lower than those of the parent compound ([2]; in vivo): 60-85%

IC50 [4, 17]: 950 nM
IC50 ([5]; Homo sapiens, SW1573, 96 h, read-out: IC50 etoposide): 3000 nM
IC50 [6, 17]: 60000 nM
Thrombocytopenia ([8]; human, in vivo, po): No significant thrombocytopenia
Compound: COc1cc([C@@H]2c3cc4c(cc3[C@@H](O[C@@H]3O[C@@H]5CO[C@@H](C)O[C@H]5[C@H](O)[C@H]3O)[C@H]3COC(=O)[C@H]23)OCO4)cc(OC)c1O [etoposide]
IC50 [3]: 16 nM
Resistance to etoposide in comparison to the MCF-7 wild type cell line ([6]; MCF-7 adrr versus MCF-7 wt): 60 fold
More resistant than its parental line ([7]; CHO-KI adrr versus CHO-KI): 5 fold
More sensitive than the parental line ([9]; S1/1.1 versus S1, P<0.01): 2 fold
Resistance of the drug resistant variant [1]: 5 fold

Compound: CC/C(=C(\c1ccccc1)c1ccc(OCCN(C)C)cc1)c1ccccc1 [tamoxifen]
Levels sufficient to modulate multidrug resistance in vitro [10]: 3-10 JAM
Reversal of adriamycin resistance [11]: partially reversed the resistance
Enhancement of dox cytotoxicity [12]: 16 fold
Enhancement of dox cytotoxicity [13]: 4.8 fold
Enhancement ([4]; MCF-7 wt, IC50 etoposide alone divided by IC50 with MNTC tamoxifen): 1.2
Enhancement [5]: 0.9
Enhancement ([5]; listed as Tamoxifen): no significant effect
Enhancement ([6]; MCF-7 adrr, IC50 etoposide alone divided by IC50 with MNTC tamoxifen): 0.7
Serum levels ([2]; after 9 days on 260 mg of tamoxifen twice a day, ref Trump et al., 1991): 6.1 µM
Serum levels ([2]; continuing tamoxifen 480 mg day-1 indefinitely, ref Stuart et al., 1991): around 4 microM
Steady state serum levels ([2]; standard dose tamoxifen 20-40 mg day-1, after 4 weeks, ref Adam et al., 1980, Fabian et al., 1980, Lien et al., 1989): 0.25 to 1.0 µM
Serum levels, plateau ([2]; tamoxifen 160 mg three times a day, after 10 days, ref Stuart et al., 1991): around 4 microM
Serum levels ([2]; tamoxifen doses of 20-40 mg day-1 in breast cancer, ref Adam et al., 1980, Fabian et al., Lien et al., 1989): around 0.5 microM
Enhancement [7]: 0.85
Enhancement ([7]; listed as Tamoxifen): no significant effect
Neurological symptoms: Severe/v. severe (number of patients) ([8]; tamoxifen 480 mg day-1, total 10 patients): 0
Neurological symptoms: Severe/v. severe (number of patients) ([8]; tamoxifen 720 mg day-1, total 16 patients): 1 (6%)
Enhancement [14]: 1.0
Enhancement ([14]; listed as Tamoxifen): no significant effect
Enhancement [9]: 0.9
Enhancement ([9]; listed as Tamoxifen): no significant effect
Reversal of adriamycin and vinblastine resistance [15]: partial reversal

Compound: COc1ccc(CCN(C)CCCC(C#N)(c2ccc(OC)c(OC)c2)C(C)C)cc1OC (stereo not drawn) [verapamil]
Effect on etoposide resistance [16]: 3-4 fold
Enhancement (reversal of resistance to vincristine) [16]: 11-125 fold

Compound: CC[C@]1(O)C[C@H]2CN(CCc3c([nH]c4ccccc34)[C@@](C(=O)OC)(c3cc4c(cc3OC)N(C=O)[C@H]3[C@@](O)(C(=O)OC)[C@H](OC(C)=O)[C@]5(CC)C=CCN6CC[C@]43[C@@H]65)C2)C1 [vincristine]
Resistance of the drug resistant variant [1]: 3.5 fold
